Test results as given in ChEMBL document CHEMBL1134138, “Phytoestrogens from the roots of Polygonum cuspidatum (Polygonaceae): structure-requirement of hydroxyanthraquinones for estrogenic activity” (Bioorg Med Chem Lett, 2001).

What was measured:
Estrogen receptor [1] = target: T1, Estrogen receptor (Homo sapiens, UniProt P03372)
T1 sequence (P03372 whole entry): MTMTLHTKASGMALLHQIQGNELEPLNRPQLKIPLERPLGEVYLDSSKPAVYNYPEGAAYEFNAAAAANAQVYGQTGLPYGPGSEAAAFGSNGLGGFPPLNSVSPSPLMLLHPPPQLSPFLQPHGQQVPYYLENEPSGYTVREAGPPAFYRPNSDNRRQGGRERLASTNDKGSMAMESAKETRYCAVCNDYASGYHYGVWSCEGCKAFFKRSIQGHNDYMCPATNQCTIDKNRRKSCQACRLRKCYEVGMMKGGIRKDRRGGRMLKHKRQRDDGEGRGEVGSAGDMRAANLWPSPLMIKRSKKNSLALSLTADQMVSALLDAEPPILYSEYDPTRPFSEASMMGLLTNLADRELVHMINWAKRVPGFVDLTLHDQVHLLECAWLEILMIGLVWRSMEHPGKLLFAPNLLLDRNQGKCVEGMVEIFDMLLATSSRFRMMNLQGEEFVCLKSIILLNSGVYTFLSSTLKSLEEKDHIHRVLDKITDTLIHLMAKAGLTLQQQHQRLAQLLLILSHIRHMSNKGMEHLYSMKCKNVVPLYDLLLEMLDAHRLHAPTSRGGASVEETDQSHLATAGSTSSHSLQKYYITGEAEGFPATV
Description: (§1) Inhibition of binding of 17 beta-estradiol to human Estrogen receptor alpha

Estrogen receptor beta [2] = target: T2, Estrogen receptor beta (Homo sapiens, UniProt Q92731)
Description: (§2) Inhibition of binding of 17 beta-estradiol to human Estrogen receptor beta

Estrogen receptor [3] = target: T1, Estrogen receptor; remark: listed apart in the source
Description: as §1

Estrogen receptor beta [4] = target: T2, Estrogen receptor beta; remark: listed apart in the source
Description: as §2

T2 sequence (Q92731 whole entry): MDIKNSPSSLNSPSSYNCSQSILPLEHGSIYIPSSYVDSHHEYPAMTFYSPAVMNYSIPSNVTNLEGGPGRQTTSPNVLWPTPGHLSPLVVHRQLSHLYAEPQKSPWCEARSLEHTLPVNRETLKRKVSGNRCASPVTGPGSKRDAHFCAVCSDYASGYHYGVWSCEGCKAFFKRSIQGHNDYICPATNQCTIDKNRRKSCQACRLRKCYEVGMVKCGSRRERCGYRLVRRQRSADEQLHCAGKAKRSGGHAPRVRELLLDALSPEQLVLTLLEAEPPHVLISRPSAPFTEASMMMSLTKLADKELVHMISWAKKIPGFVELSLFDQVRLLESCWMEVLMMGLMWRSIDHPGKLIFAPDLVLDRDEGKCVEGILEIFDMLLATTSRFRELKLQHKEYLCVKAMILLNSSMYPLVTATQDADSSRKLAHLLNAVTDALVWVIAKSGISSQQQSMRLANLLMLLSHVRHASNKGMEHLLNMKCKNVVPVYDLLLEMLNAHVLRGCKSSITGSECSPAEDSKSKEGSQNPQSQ

| SMILES | Ki (Estrogen receptor [1]) [µM] | Ki (Estrogen receptor beta [2]) [µM] | IC50 (Estrogen receptor [3]) [µM] | IC50 (Estrogen receptor beta [4]) [µM] |
| --- | --- | --- | --- | --- |
| O=C1c2ccc(O)cc2C(=O)c2ccc(O)cc21 | 0.31 | 0.69 | 1.1 | 2.4 |
| Cc1cc(O)c2c(c1)C(=O)c1cc(O)cc(O[C@@H]3O[C@H](CO)[C@@H](O)[C@H](O)[C@H]3O)c1C2=O [EMODIN 8-O-BETA-D-GLUCOPYRANOSIDE] | 5.7 | 18 | 20 | 62 |
| Cc1cc(O)c2c(c1)C(=O)c1cc(O)cc(O)c1C2=O [EMODIN] |  | 1.5 |  | 5.2 |
